Residues, ends and D or L forms follow the SMILES beside them.
How the values were obtained:
[1] = test system: IL8 induced THP-1 migration; assay: THP-1 trans-well migration assay, IL8 as chemoattractant; assay type: cell-based, human
Procedure: To determine whether an agent inhibits a chemokine-induced activity, such as macrophage recruitment, varying amounts of the agent are mixed with cells in the presence of a known chemoattractant. For example, a range of known concentrations of an agent, e.g., a chemokine peptide, is incubated with a defined number (e.g., 10^4 - […]) of human THP-1 monocyte cells in individual wells of the top compartment of a trans-well plate. Chemokine (such as MCP-1, MIP1α, IL8 or SDF-1α), at a concentration known to cause significant migration of THP-1 cells in the trans-well migration assay, is placed in the lower compartment (Figure 1). […] A standard curve consisting of a two-fold dilution series of THP-1 cells (in 29 µl) is prepared to accurately quantify the number of cells that have migrated. […] Absorbance of converted dye is measured at a wavelength of 595 nm using an ELISA plate reader. The number of migrated cells in each well is then determined by interpolation of the standard curve (see also Imai et al.,J. Biol. Chem., 272, 15036 (1997)). […]
After incubation, the cells were gently removed from the top of the filter with a pipette, 20 µl of 20 mM EDTA in PBS was added into each top well, and the mixture was incubated for 20 minutes at 4°C. […] A standard curve was prepared to accurately quantify the number of THP-1 cells that had migrated. […]

[2] = test system: IL8 induced human monocyte migration; assay: Migration of freshly prepared peripheral blood monocytes, IL8; assay type: cell-based
Procedure: (§1) Agents may also be screened in a chemotactic assay which employs human neutrophils, eosinophils, mast cells, basophils, platelets, lymphocytes or monocytes. For monocytes, 9 mls of fresh blood are transferred to a tube containing 1 ml of 3.8% sodium citrate, and left at room temperature for 15 minutes. Five mls of this anti-coagulated blood are carefully layered over 3.5 ml Polymorphprep® (Nycomed Pharma, Oslo), and centrifuged at 500 g for 35 minutes per the manufacturer's instructions. The top band at the sample/medium interface contains monocytes. The monocytes are carefully removed with a glass pipette, and reconstituted to the original volume (5 ml). The cells are washed with PBS plus 10% fetal calf serum, and centrifuged at 400 g for 10 minutes. The washing step is repeated three times before the cells are counted. Cells are resuspended at 1 × 10^7 cells/ml in RPMI-1640 + 10% fetal calf serum (FCS). The monocytes are cultured for two days at 37°C in a humidified atmosphere of 5% CO2-
(§2) On day 2, the cells are counted, spun down, and reconstituted to 1 × 10^7 cells/ml in Gey's balanced salt solution + 1 mg/ml bovine serum albumin (BSA). […]

[3] = test system: SDF-1α induced human monocyte migration; assay: Migration of freshly prepared peripheral blood monocytes, SDF-1α; assay type: cell-based
Procedure: as §1, §2

CC[C@H](C)[C@H](NC(=O)[C@H](C)NC(=O)[C@H](CC(=O)O)NC(=O)[C@@H]1CCCN1C(=O)[C@H](CCC(N)=O)NC(=O)[C@H](C)N)C(=O)N[C@@H](CC(N)=O)C(=O)N[C@@H](C)C(=O)N1CCC[C@H]1C(=O)N[C@H](C(=O)N[C@H](C(=O)N[C@@H](CS)C(=O)N[C@@H](CS)C(=O)O)[C@@H](C)O)C(C)C [Peptide 1] (H-AQPDAINAPVTCC-OH; N-terminus and C-terminus assumed)
n.s.: % inhibition at 100 µM versus IL8 ([1]; THP-1 migration, agent at 100 µM, n.s. or dash = no statistically significant inhibition) | ED50 (µM) versus IL8 ([1]; inhibition of THP-1 migration, n.s. = not statistically significant) | % inhibition at 100 µM versus IL8 [2] | % inhibition at 100 µM versus SDF-1α [3]

From patent EP2386565A2, “Compounds and methods to inhibit or augment an inflammatory response” (Cambridge Enterprise Ltd., priority 1999, dated 2000)
